Data from ChEMBL document CHEMBL3861995 (Bioorg Med Chem, 2016).

Assays:
[1] = target: T1, Protein kinase C (PKC) (Homo sapiens) (UniProt O94806+P41743+P17252+P05129+Q05655+P05771+Q05513+Q02156+P24723+Q15139+Q04759); experiment: Inhibition of PKC in human SH-SY5Y cells assessed as inhibition of PMA-stimulated MARCKS phosphorylation at 3 uM preincubated for 1 hr followed by PMA-stimulation for 15 mins by Western blot analysis relative to control; assay type: cell-based
[2] = target: T1, Protein kinase C (PKC) (Homo sapiens); experiment: Inhibition of PKC in human SH-SY5Y cells assessed as inhibition of PMA-stimulated MARCKS phosphorylation at 10 uM preincubated for 1 hr followed by PMA-stimulation for 15 mins by Western blot analysis relative to control; assay type: cell-based
Estrogen receptor = target: T2, Estrogen receptor (Homo sapiens, UniProt P03372); experiment: biochemical
T2 sequence (P03372 whole entry): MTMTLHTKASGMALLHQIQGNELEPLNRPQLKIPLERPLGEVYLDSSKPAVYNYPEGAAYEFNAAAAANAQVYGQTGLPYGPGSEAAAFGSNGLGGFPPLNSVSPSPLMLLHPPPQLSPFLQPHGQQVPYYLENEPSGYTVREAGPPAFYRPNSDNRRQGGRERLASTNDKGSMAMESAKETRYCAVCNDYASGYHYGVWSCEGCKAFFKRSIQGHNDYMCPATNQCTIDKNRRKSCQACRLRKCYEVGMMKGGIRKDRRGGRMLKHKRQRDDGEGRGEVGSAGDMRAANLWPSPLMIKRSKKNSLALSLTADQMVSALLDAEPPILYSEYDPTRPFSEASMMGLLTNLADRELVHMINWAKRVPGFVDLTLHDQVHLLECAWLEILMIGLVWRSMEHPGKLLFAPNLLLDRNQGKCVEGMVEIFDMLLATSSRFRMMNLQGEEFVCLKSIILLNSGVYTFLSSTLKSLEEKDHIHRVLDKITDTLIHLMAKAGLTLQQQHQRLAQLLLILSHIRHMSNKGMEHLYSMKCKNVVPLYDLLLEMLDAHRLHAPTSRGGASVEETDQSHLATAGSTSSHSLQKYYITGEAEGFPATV
Description: Displacement of Fluormone ES2 Green from human recombinant full length ERalpha expressed in insect cells measured up to 4 hrs by fluorescence polarization assay

Row | SMILES | inhibition [1] [%] | inhibition [2] [%] | IC50 (Estrogen receptor) [µM]
1 | N#C/C(=C(\c1ccccc1)c1ccc(OCCN2CCOCC2)cc1)c1ccccc1 | 43 | 57 | 
2 | N#CC(=C(c1ccc(OCCN2CCOCC2)cc1)c1ccc(OCCN2CCOCC2)cc1)c1ccccc1 | 62 | 72 | 0.553
3 | N#C/C(=C(/c1ccccc1)c1ccc(OCCN2CCOCC2)cc1)c1ccccc1 | 37 | 70 | 
4 | CN1CCN(CCOc2ccc(C(=C(C#N)c3ccccc3)c3ccc(OCCN4CCN(C)CC4)cc3)cc2)CC1 | 83 | 78 | > 10
5 | CN(C)CCOc1ccc(C(=C(C#N)c2cccs2)c2ccc(OCCN(C)C)cc2)cc1 | 39 | 68 | > 10
6 | CN(C)CCOc1ccc(C(=C(C#N)c2ccccc2)c2ccccc2)cc1 | 22 | 67 | 
7 | CCN(CC)CCOc1ccc(C(=C(C#N)c2ccccc2)c2ccc(OCCN(CC)CC)cc2)cc1 | 12 | 68 | > 10
